Data taken from patent US5744462A, “Steroids useful as anti-cancer and anti-obesity agents” (Research Corporation Technologies, Inc., priority 1995, dated 1998).
Entries after “also recorded” stand apart in the source; their conditions may differ.

What was measured:
[1] = long term treatment, NZB mice; cited from earlier work
[2] = Liver weight after three weeks of diet treatment; type: in vivo, mouse (female Balb/c); details: 0.25% of diet
Experimental: (§1) Female Balb/c mice were housed in polycarbonate cages (6/mice/cage) in animal quarters maintained at 24°±1° C. with 12 hours of light and 12 hours of dark each day. The mice were placed on a diet containing either DHEA, 8354, A, B clofibrate or with no addition. Three weeks later the mice were killed, the livers were perfused with cold saline, weighed, and 5% liver homogenates were prepared for the determination of catalase activity by the spectrophotometric method of Luck (H. Luck, in Method in Enzyme Analysis, H. U. Bergmeyer, Ed. (Verlag Chemie, Weinheim/Bergstrasse, Germany, 1965)). Total protein was measured by the method of Lowry, et al. (O. H. Lowry, N. J. Rosebrough, A. L. Farr, R. J. Randall, J. Biol. Chem., 193, 265 (1951)).

[3] = test system: cultured rat kidney epithelial cell line; details: cited from earlier work
[4] = Anti-obesity action, body weight, male A/J mice; type: in vivo, mouse (male A/J); details: 0.45% in diet
Experimental: Male A/J (5 weeks old) mice were obtained from the
Jackson Laboratory and were housed in polycarbonate cages (6
mice/cage) in animal quarters maintained at 24 ± 1° C. with 12
hours of light and 12 hours of darkness each day. One week
after arrival, the mice were placed on a diet containing
either DHEA, 8353, or without steroid. Animals were weighed

[5] = Anti-obesity action, body weight, female Balb/c mice; type: in vivo, mouse (female Balb/c); details: 0.25% in diet
Experimental: Female Balb/c (8 weeks old) mice were obtained from
the Jackson Laboratory and were housed in polycarbonate cages
(6 mice/cage) in animal quarters maintained at 24 ± 1° C. with
12 hours of light and 12 hours of darkness each day. One
week after arrival, the mice were placed on a diet containing
either DHEA, 8354, or without steroid. Animals were weighed

[6] = in vivo; cited from earlier work
[7] = mouse, in vivo; cited from earlier work
[8] = Body weight and food consumption in the DMBA binding experiment; type: in vivo, mouse; details: two weeks of feeding
Experimental: Binding of [^3 H]DMBA to mouse skin DNA was determined as described in Pashko, L. L., and Schwartz, A. G. (1983), Effect of food restriction, dehydroepiandrosterone, or obesity on the binding of ^3 H-7,12-dimethylbenz(a)anthracene to mouse skin DNA, J. Gerontol., 38, 8-12. Values are mean±SD for 3 individual determinations, with pooled tissue from 2 mice used for each determination. DHEA or testosterone (400 ug in 0.2 ml acetone) was applied to the skin one hour before [^3 H]DMBA. The mean weight of the food restricted mice was 18.5±1.0 gm, n=6, of the ad libitum fed, 27.4±1.0 gm, n=6, of the ad libitum fed treated with DHEA, 28.2±0.9 gm, n=6, and of the ad libitum fed treated with testosterone, 28.3±0.9 gm, n=6, following two weeks of feeding. The average food consumed was, in gm/mouse/day, 2.2, 3.8, 3.8 and 4.0 for the food restricted, ad libitum fed, ad libitum fed plus DHEA, and ad libitum fed plus testosterone groups, respectively.

mouse skin DNA = assay: (3H) DMBA binding to skin DNA; type: in vivo, mouse (A/J); details: for effect on 3H-DMBA binding to skin DNA: mice
liver catalase = assay: Liver catalase activity after three weeks of diet treatment; type: in vivo, mouse (female Balb/c)
Experimental: as §1

[9] = oral; cited from earlier work
[10] = biological target: purified bovine adrenal G6PDH (Bos taurus, UniProt F1MMK2); assay: G6PDH inhibition test; type: biochemical; details: individual determinations
Chain of purified bovine adrenal G6PDH (F1MMK2 31-70): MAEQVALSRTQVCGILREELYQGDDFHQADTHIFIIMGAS
Chain of purified bovine adrenal G6PDH (F1MMK2 101-575): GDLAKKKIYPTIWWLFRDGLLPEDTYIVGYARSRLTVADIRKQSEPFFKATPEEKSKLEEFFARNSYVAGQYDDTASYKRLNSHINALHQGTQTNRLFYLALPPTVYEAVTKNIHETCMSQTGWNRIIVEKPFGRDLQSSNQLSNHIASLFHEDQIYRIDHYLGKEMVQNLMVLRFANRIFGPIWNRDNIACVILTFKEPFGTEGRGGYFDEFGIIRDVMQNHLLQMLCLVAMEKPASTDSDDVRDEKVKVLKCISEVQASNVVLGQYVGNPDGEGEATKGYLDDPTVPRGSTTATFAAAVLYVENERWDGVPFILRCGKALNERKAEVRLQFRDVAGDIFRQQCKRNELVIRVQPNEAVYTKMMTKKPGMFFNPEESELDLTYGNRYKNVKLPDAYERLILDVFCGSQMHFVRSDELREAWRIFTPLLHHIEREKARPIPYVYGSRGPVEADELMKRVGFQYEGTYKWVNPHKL
Description: The compound listed below are screened as inhibitors of purified bovine adrenal G6PDH activity as one predictor of cancer preventive action. The assay for testing the inhibition of purified bovine adrenal G6PDH is according to the procedure by Oertell, G. W. and Rebelein, I. in Biochem. Biophys. Acta, 184, 459-460 (1969).

[11] = without suppressing appetite; cited from earlier work
[12] = topical, complete carcinogenesis model; cited from earlier work
HeLa cell strain, TCRC-2 = details: cited from earlier work
[13] = test system: human lymphocytes (Epstein-Barr virus-induced transformation); details: cited from earlier work
[14] = mouse, in vivo; cited from earlier work; remark: listed apart in the source
[15] = cited from earlier work
[16] = test system: many different cell lines; details: 10^-5 M to 10^-4 M; cited from earlier work
[17] = C3H mice, cited from earlier work
[18] = test system: mammalian glucose-6-phosphate dehydrogenase (G6PDH); details: cited from earlier work

C[C@]12CC[C@H](O)CC1=CC[C@@H]1[C@@H]2CC[C@]2(C)C(=O)CC[C@@H]12 [DHEA, Dehydroepiandrosterone]
rate of development of the autoimmune anemia [1]: significantly inhibits the rate of development of the autoimmune anemia
LIVER WEIGHT ([2]; control 0.057 ± 0.006, DHEA p < 0.05, clofibrate p < 0.002 vs control): 0.074 ± 0.005 gm/gm body weight
liver weight, in words ([2]; mice): increased liver weight; also recorded: hepatomegaly
capacity of TPA to stimulate 3H-thymidine incorporation [3]: antagonizes
mean weekly weight ± S.D. ([4]; week 0, control 23 ± 1.5): 23.0 ± 1.5 grams
mean weekly weight ± S.D. ([4]; week 1, control 25.0 ± 1.6): 22.8 ± 1.5 grams
mean weekly weight ± S.D. ([4]; week 2, control 27.0 ± 1.6): 19.0 ± 1.5 grams
mean weekly weight ± S.D. ([4]; week 3, control 27.3 ± 1.6): 21.5 ± 1.1 grams
mean weekly weight ± S.D. ([4]; week 4, control 27.5 ± 1.9): 21.4 ± 1.2 grams
mean weekly weight ± S.D. ([5]; week 0, control 17.5 ± 1.4): 17.5 ± 1.5 grams
mean weekly weight ± S.D. ([5]; week 1, control 19.9 ± 1.2): 20.0 ± 0.9 grams
mean weekly weight ± S.D. ([5]; week 2, control 20.6 ± 1.0): 20.6 ± 0.9 grams
mean weekly weight ± S.D. ([5]; week 3, control 21.8 ± 0.8): 21.3 ± 1.3 grams
estrogenic effect after prolonged administration [6]: evidence of an estrogenic effect after prolonged administration
hypoglycemic effect [7]: marked hypoglycemic effect
mean body weight ([8]; topical 400 ug, ad libitum fed 27.4±1.0): 28.2±0.9 gm
average food consumed ([8]; ad libitum fed 3.8): 3.8 gm/mouse/day
SPECIFIC ACTIVITY, (3H) DMBA binding to skin DNA (mouse skin DNA; 400 ug topical one hour before DMBA, ad libitum fed 116 ± 5.2): 66 ± 13 cpm/ug DNA
effect on 3H-DMBA binding to skin DNA (mouse skin DNA; four weeks, 400 mg/kg): does inhibit ^3 H-DMBA binding to skin DNA
effect on 3H-DMBA binding to skin DNA (mouse skin DNA; oral, doses well below 400 mg/kg): inactive
effect on 3H-DMBA binding to skin DNA (mouse skin DNA; single administration, 400 mg/kg): does not inhibit ^3 H-DMBA binding to skin DNA
effect on rate of binding of 3H-DMBA to skin DNA (mouse skin DNA; topical, in words (Table 4)): inhibits the rate of binding
CATALASE ACTIVITY (liver catalase; 0.25% of diet, control 31.1 ± 6.7, DHEA p < 0.05, clofibrate p < 0.001 vs control): 97.8 ± 24 Units per mg protein
increase in liver catalase specific activity (liver catalase; 0.25%, vs control): threefold
catalase activity, in words (liver catalase; mice, 0.25% of diet): stimulated catalase activity
survival [9]: prolonged the survival
Percent Inhibition of G6PDH ([10]; 10^-5 M): 57%
inhibition at 10 µM ([10]; 10^-5 M, read-out: Percent Inhibition of G6PDH): 53%
inhibition at 1 µM ([10]; 10^-6 M, read-out: Percent Inhibition of G6PDH): 17%
effect on obesity on long-term administration [11]: prevented the development of obesity without suppressing appetite
DMBA produced papillomas and carcinomas [12]: inhibits DMBA produced papillomas and carcinomas
growth inhibition of HeLa TCRC-2 (HeLa cell strain, TCRC-2): particularly sensitive to DHEA-induced growth inhibition
reversal of growth inhibition by deoxynucleosides (HeLa cell strain, TCRC-2; mixture of deoxynucleosides of adenine, guanine, cytosine, thymine in medium): can be almost completely overcome
inhibition of Epstein-Barr virus-induced transformation [13]: inhibitors of Epstein-Barr virus-induced transformation of human lymphocytes
anti-hypercholesterolemic effect [14]: anti-hypercholesterolemic effect
enzyme-positive premalignant foci in the liver ([15]; 0.6%, 20-22 weeks, after 4 injections of carcinogen): inhibited the formation of enzyme-positive premalignant foci in the liver
liver basophilic lesions, enzyme-negative ([15]; after carcinogen): promoted the development of liver basophilic lesions which were enzyme-negative
growth of cell lines in culture [16]: slows the growth of many different cell lines in culture
weight gain on long-term treatment [17]: reducing weight gain without suppressing appetite
spontaneous breast cancer development ([17]; long-term treatment): markedly inhibits spontaneous breast cancer development
inhibition of mammalian G6PDH [18]: potent non-competitive inhibitor
